According to patent US12723063B2, “GIPR-agonist compounds” (Eli Lilly and Company, priority 2019, dated 2026):
*1 amine or outer side, *2 acyl side, *3 side chain or, on linkers, in order; H or OH if unused. Where a SMILES comes first, the peptide text is derived from it. Side-chain parts run from the residue outwards. [ ]: non-standard residue; d: D form. The star is where a group is joined. C20 diacid = O=C(O)CCCCCCCCCCCCCCCCCCC(=O)*; γGlu = O=C(O)[C@H](CCC(=O)[*:2])N[*:1]; 4Pal = N[C@@H](Cc1ccncc1)C(=O)O; αMeL = CC(C)C[C@](C)(N)C(=O)O; Iva = CC[C@](C)(N)C(=O)O; AEEA = NCCOCCOCC(=O)O; Aib = CC(C)(N)C(=O)O

What was measured:
[1] = target: T1, human glucose-dependent insulinotropic peptide receptor (GIPR) (Homo sapiens, UniProt P48546); experiment: cAMP functional assay (HTRF) in HEK293 cells in presence of 0.1% casein; assay type: cell-based; conditions: HEK293 cells expressing human GIPR, geometric mean, read-out: hGIPR cAMP Rel EC50 nM (SEM, n)
T1 construct: expressed in transfected cells; host or cells: HEK293
T1 sequence (P48546 22-466): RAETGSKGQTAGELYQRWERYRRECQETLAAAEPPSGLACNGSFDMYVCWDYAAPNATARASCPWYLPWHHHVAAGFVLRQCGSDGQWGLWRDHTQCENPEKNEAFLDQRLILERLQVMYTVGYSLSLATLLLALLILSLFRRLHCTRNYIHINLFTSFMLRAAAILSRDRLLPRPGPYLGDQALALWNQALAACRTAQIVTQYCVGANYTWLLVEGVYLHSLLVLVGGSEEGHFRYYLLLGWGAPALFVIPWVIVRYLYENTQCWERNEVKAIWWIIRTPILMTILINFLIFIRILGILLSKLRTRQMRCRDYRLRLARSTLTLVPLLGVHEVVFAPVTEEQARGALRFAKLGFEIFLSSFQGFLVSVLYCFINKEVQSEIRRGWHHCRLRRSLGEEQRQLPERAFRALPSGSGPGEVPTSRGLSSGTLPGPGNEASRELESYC

[2] = target: T2, human glucagon receptor (GcgR) (Homo sapiens, UniProt P47871); experiment: as above; assay type: cell-based; conditions: HEK293 cells expressing human GcgR, geometric mean, read-out: hGcgR cAMP Rel EC50 nM (SEM, n)
T2 construct: expressed in transfected cells; host or cells: HEK293
T2 sequence (P47871 26-477): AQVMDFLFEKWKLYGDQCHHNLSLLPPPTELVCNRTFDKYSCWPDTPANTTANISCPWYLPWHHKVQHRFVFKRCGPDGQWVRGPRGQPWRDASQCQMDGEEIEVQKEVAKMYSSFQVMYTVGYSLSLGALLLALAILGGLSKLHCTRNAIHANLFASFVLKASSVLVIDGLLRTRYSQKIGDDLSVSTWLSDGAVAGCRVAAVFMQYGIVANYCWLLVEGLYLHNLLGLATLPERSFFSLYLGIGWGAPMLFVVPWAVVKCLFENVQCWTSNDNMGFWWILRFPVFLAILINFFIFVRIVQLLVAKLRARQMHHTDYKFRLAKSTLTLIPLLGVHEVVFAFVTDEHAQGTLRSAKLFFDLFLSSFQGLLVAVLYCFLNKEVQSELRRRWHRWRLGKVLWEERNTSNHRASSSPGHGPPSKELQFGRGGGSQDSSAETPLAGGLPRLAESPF

| SMILES | EC50 [1] [nM] | EC50 [2] [nM] |
| --- | --- | --- |
| CC[C@H](C)[C@H](NC(=O)[C@H](CO)NC(=O)[C@H](Cc1ccc(O)cc1)NC(=O)[C@H](CC(=O)O)NC(=O)[C@H](CO)NC(=O)[C@@H](NC(=O)[C@](C)(CC)NC(=O)[C@@H](NC(=O)CNC(=O)[C@H](CCC(=O)O)NC(=O)C(C)(C)NC(=O)[C@@H](N)Cc1ccc(O)cc1)[C@@H](C)O)[C@@H](C)CC)C(=O)N[C@@](C)(CC(C)C)C(=O)N[C@@H](CC(C)C)C(=O)N[C@@H](CC(=O)O)C(=O)N[C@@H](CCCCN)C(=O)N[C@@H](CCCCNC(=O)COCCOCCNC(=O)COCCOCCNC(=O)CC[C@H](NC(=O)CCCCCCCCCCCCCCCCCCC(=O)O)C(=O)O)C(=O)N[C@@H](Cc1c[nH]cn1)C(=O)N[C@@H](CCC(N)=O)C(=O)NC(C)(C)C(=O)N[C@@H](CC(=O)O)C(=O)N[C@@H](Cc1ccccc1)C(=O)N[C@H](C(=O)N[C@@H](CCC(=O)O)C(=O)N[C@@H](Cc1ccncc1)C(=O)N[C@@H](CC(C)C)C(=O)N[C@@H](CC(C)C)C(=O)N[C@@H](C)C(=O)NCC(=O)NCC(=O)N1CCC[C@H]1C(=O)N[C@@H](CO)C(=O)N[C@@H](CO)C(=O)NCC(=O)N[C@@H](C)C(=O)N1CCC[C@H]1C(=O)N1CCC[C@H]1C(=O)N1CCC[C@H]1C(=O)N[C@@H](CO)C(N)=O)C(C)C [Example 55] (H-Y[Aib]EGT[Iva]ISDYSI[αMeL]LDKK([AEEA-AEEA-γGlu-C20 diacid])HQ[Aib]DFVE[4Pal]LLAGGPSSGAPPPS-NH2) | 0.017 | > 5000 |
| CC[C@H](C)[C@H](NC(=O)[C@H](Cc1ccccc1)NC(=O)[C@@H](NC(=O)CNC(=O)[C@H](CCC(=O)O)NC(=O)C(C)(C)NC(=O)[C@@H](N)Cc1ccc(O)cc1)[C@@H](C)O)C(=O)N[C@@H](CO)C(=O)N[C@@H](CC(=O)O)C(=O)N[C@@H](Cc1ccc(O)cc1)C(=O)N[C@@H](CO)C(=O)N[C@H](C(=O)N[C@@](C)(CC(C)C)C(=O)N[C@@H](CC(C)C)C(=O)N[C@@H](CC(=O)O)C(=O)N[C@@H](CCCCN)C(=O)N[C@@H](CCCCNC(=O)COCCOCCNC(=O)COCCOCCNC(=O)CC[C@H](NC(=O)CCCCCCCCCCCCCCCCCCC(=O)O)C(=O)O)C(=O)N[C@@H](Cc1c[nH]cn1)C(=O)N[C@@H](CCC(N)=O)C(=O)NC(C)(C)C(=O)N[C@@H](CC(=O)O)C(=O)N[C@@](C)(Cc1ccccc1)C(=O)N[C@H](C(=O)N[C@@H](CCC(=O)O)C(=O)N[C@@H](Cc1ccncc1)C(=O)N[C@@H](CC(C)C)C(=O)N[C@@H](CC(C)C)C(=O)N[C@@H](C)C(=O)NCC(=O)NCC(=O)N1CCC[C@H]1C(=O)N[C@@H](CO)C(=O)N[C@@H](CO)C(=O)NCC(=O)N[C@@H](C)C(=O)N1CCC[C@H]1C(=O)N1CCC[C@H]1C(=O)N1CCC[C@H]1C(=O)N[C@@H](CO)C(N)=O)C(C)C)[C@@H](C)CC [Example 56] | 0.0169 | > 5000 |
| CC[C@H](C)[C@H](NC(=O)[C@H](Cc1ccccc1)NC(=O)[C@@H](NC(=O)CNC(=O)[C@H](CCC(=O)O)NC(=O)C(C)(C)NC(=O)[C@@H](N)Cc1ccc(O)cc1)[C@@H](C)O)C(=O)N[C@@H](CO)C(=O)N[C@@H](CC(=O)O)C(=O)N[C@@H](Cc1ccc(O)cc1)C(=O)N[C@@H](CO)C(=O)N[C@H](C(=O)N[C@@](C)(CC(C)C)C(=O)N[C@@H](CC(C)C)C(=O)N[C@@H](CC(=O)O)C(=O)N[C@@H](CCCCN)C(=O)N[C@@H](CCCCNC(=O)COCCOCCNC(=O)COCCOCCNC(=O)CC[C@H](NC(=O)CCCCCCCCCCCCCCCCCCC(=O)O)C(=O)O)C(=O)N[C@@H](Cc1c[nH]cn1)C(=O)N[C@@H](CCC(N)=O)C(=O)NC(C)(C)C(=O)N[C@@H](CCC(=O)O)C(=O)N[C@@H](Cc1ccccc1)C(=O)N[C@H](C(=O)N[C@@H](CCC(=O)O)C(=O)N[C@@H](Cc1ccncc1)C(=O)N[C@@H](CC(C)C)C(=O)N[C@@H](CC(C)C)C(=O)N[C@@H](C)C(=O)N[C@@H](CCC(N)=O)C(=O)NCC(=O)N1CCC[C@H]1C(=O)N[C@@H](CO)C(=O)N[C@@H](CO)C(=O)NCC(=O)N[C@@H](C)C(=O)N1CCC[C@H]1C(=O)N1CCC[C@H]1C(=O)N1CCC[C@H]1C(=O)N[C@@H](CO)C(N)=O)C(C)C)[C@@H](C)CC [Example 57] (H-Y[Aib]EGTFISDYSI[αMeL]LDKK([AEEA-AEEA-γGlu-C20 diacid])HQ[Aib]EFVE[4Pal]LLAQGPSSGAPPPS-NH2) | 0.0177 | 886 |
